From patent US7504420B2, “Compounds which inhibit beta-secretase activity and methods of use” (CoMentis, Inc., priority 2005, dated 2009)

Assays:
[1] = target: memapsin 2 (Homo sapiens, UniProt P56817); experiment: Inhibition of memapsin 2 catalytic activity (Ki); type: biochemical; conditions: memapsin 2, pH 4, 37° C.; read-out: M2K
Method in brief: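 Run at 37 °C and pH 4: compound and enzyme pre-incubated 20 min before FS-2 fluorogenic substrate started hydrolysis,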

[2] = test system: Aβ production in Chinese hamster ovary cells that over-express human APP695 with the London and Swedish mutations; experiment: Cellular Aβ IC50 determination (Aβ40 sandwich ELISA); conditions: Cricetulus griseus, CHO, 24 h, read-out: Cell, Aβ40, CHO cells over-expressing human APP695 (London and Swedish mutations), 24 h
Experimental: The potency of compounds against memapsin 2 catalytic activity was determined in a cellular assay of Aβ production. […] Compounds are dissolved in DMSO to concentrations near 1 mM, and diluted into culture media to a final concentration near 4 μM (final 0.4% DMSO). Compounds were diluted serially and applied to cells in multi-well plates 48 h after seeding. Incubation was continued in 5% CO2 at 37 degrees C. for 24 h. Aliquots were removed and assayed for Aβ40 content using a sandwich ELISA (BioSource International). Amount of Aβ40 over the range of concentration of compounds, relative to control incubations, were fit to a 4-parameter IC50 model.

[3] = target: cathepsin D (Homo sapiens, UniProt P07339); experiment: Inhibition of cathepsin D catalytic activity (Ki); type: biochemical; conditions: pH 4.0, 37° C., read-out: CDK
Sequence of cathepsin D (P07339 65-412, species assumed): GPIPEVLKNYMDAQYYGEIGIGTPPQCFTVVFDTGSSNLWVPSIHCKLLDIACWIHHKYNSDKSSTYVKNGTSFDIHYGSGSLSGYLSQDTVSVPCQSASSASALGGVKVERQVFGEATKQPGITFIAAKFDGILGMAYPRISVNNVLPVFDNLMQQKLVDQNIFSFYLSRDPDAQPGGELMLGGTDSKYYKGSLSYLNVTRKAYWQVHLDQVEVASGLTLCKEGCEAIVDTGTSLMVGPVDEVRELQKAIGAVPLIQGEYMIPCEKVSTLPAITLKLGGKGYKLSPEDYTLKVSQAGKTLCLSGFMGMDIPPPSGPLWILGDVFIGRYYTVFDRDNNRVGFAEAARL

[4] = target: T1, memapsin 1 (Homo sapiens, UniProt Q9Y5Z0); experiment: Inhibition of memapsin 1 catalytic activity (Ki); type: biochemical; conditions: memapsin 1, pH 4.0, 37° C.; read-out: M1K
T1 sequence (Q9Y5Z0 63-518): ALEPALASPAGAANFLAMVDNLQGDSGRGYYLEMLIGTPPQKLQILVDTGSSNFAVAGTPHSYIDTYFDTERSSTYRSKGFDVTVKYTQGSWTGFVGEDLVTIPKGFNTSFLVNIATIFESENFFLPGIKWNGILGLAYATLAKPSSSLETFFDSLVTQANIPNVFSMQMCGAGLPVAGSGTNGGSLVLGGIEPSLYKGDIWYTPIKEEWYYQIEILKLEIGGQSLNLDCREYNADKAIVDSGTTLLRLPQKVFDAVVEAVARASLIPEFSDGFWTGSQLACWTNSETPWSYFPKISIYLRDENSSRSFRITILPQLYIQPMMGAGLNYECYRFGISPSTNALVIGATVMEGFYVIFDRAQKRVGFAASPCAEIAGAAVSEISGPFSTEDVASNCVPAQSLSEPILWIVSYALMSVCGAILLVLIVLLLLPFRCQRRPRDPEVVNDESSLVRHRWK
Experimental: A substrate peptide NH3-ELDLAVEFWHDR-CO2 (SEQ ID NO.:1) (used for inhibition assay of memapsin 2, memapsin 1, and cathepsin D) was dissolved at 2 mg/ml in DMSO and diluted 1:100 in 0.1 M sodium acetate, pH 4.0 just prior to assay. Inhibitor dissolved in DMSO was diluted into 0.1 M sodium acetate, pH 4.0 (1:100 dilution). A […] aliquot of the inhibitor solution in pH 4 buffer was combined with […] of 0.1 M sodium acetate containing 100-200 nM of memapsin 1, memapsin 2, or cathepsin D. Following a pre-incubation at 37° C., the proteolytic assay was initated by addition of […] of the substrate diluted into pH 4 buffer, and incubation continued at 37° C. Aliquots were removed at time intervals, and combined with an equal volume of MALDI-TOF matrix (α-hydroxycinnamic acid in acetone, 20 mg/ml) and immediately spotted in duplicate onto a stainless-steel MALDI sample plate. MALDI-TOF mass spectrometry was performed on a PE Biosystems Voyager DE instrument at the Molecular Biology Resource Center on campus. The instrument was operated at 25,000 accelerating volts in positive mode with a 150 ns delay. Ions with a mass-to-charge ratio (m/z) were detected in the range of 650-2000 atomic mass units. Data were analyzed by the Voyager Data Explorer module to obtain ion intensity data for mass species of substrates and corresponding products in a given mixture. Relative product formation was calculated as the ratio of signal intensity of the product to the sum of signal intensities of both product and the corresponding substrate. Relative product formed per unit time was obtained from non-linear regression analysis of the data representing the initial 15% formation of product using the model: 1−e^−kT, where k was the relative hydrolytic rate constant and T was time in seconds. Alternatively, relative hydrolytic rates were determined using a fluorogenic cleavage assay (Ermolieff, J. et al., Biochemistry, 39: 12450-12456 (2000)). Initial rates from either method were expressed relative to uninhibited controls and the inhibition constant Ki was determined by a non-linear fit to a tight-binding model of competitive inhibition (Bieth, J., Bayer-Symposium V: Proteinase Inhibitors, pp 463-469, Spinger-Varlag, Berlin (1994)). Results are shown in Table 1 above (M2K, CDK, and M1K columns represent, respectively, the K1 values obtained for memapsin 2, cathepsin D and memapsin 1).

Sequence of memapsin 2 (P56817 46-501): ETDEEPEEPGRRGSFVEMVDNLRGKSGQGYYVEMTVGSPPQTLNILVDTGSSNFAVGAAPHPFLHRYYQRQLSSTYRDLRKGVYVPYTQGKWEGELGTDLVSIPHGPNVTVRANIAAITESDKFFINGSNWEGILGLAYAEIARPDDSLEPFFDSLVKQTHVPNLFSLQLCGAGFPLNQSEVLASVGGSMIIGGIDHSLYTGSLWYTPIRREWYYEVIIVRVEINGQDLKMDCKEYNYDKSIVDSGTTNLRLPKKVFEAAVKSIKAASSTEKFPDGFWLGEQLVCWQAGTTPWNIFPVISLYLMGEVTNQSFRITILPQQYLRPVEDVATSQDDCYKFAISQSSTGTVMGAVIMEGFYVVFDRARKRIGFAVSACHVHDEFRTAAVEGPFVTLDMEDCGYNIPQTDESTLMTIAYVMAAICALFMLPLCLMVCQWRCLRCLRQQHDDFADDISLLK

Compound | Ki [1] | IC50 [2] | Ki [3] | Ki [4]
Cc1csc(CN(C)C(=O)c2cccc(C(=O)NC(Cc3ccccc3)C(O)CNCc3cccc(F)c3)c2)n1 (centres unmarked) [N1-(4-(3-fluorobenzylamino)-3-hydroxy-1-phenylbutan-2-yl)-N3-methyl-N3-((4-methylthiazol-2-yl)methyl)isophthalamide] | > 501 nM | < 1000 nM | < 300 nM | > 501 nM
Cc1cccc(CNCC(O)C(Cc2ccccc2)NC(=O)c2cc(C(=O)NC(C)c3ccccc3)cc(N(C)S(C)(=O)=O)c2)c1 (centres unmarked) [N1-(3-hydroxy-4-(3-methylbenzylamino)-1-phenylbutan-2-yl)-5-(N-methylmethylsulfonamido)-N3-(1-phenylethyl)isophthalamide] | < 300 nM | < 1000 nM | < 300 nM | 301 to 500 nM
COC(=O)c1cccc(CNCC(O)C(Cc2ccccc2)NC(=O)c2cc(C(=O)NC(C)c3ccccc3)cc(N(C)S(C)(=O)=O)c2)c1 (centres unmarked) [methyl 3-((2-hydroxy-3-(3-(N-methylmethylsulfonamido)-5-(1-phenylethylcarbamoyl)benzamido)-4-phenylbutylamino)methyl)benzoate] | > 501 nM | < 1000 nM | > 501 nM | > 501 nM
CC(NC(=O)c1cc(C(=O)NC(Cc2ccccc2)C(O)CNCc2cccc(F)c2)cc(N(C)S(C)(=O)=O)c1)c1ccccc1 (centres unmarked) [N1-(4-(3-fluorobenzylamino)-3-hydroxy-1-phenylbutan-2-yl)-5-(N-methylmethylsulfonamido)-N3-(1-phenylethyl)isophthalamide] | < 300 nM | < 1000 nM | 301 to 500 nM | > 501 nM
Cc1cccc(CNCC(O)C(Cc2ccccc2)NC(=O)c2cccc(C(=O)N(C)Cc3nc(C)cs3)c2)c1 (centres unmarked) [N1-(3-hydroxy-4-(3-methylbenzylamino)-1-phenylbutan-2-yl)-N3-methyl-N3-((4-methylthiazol-2-yl)methyl)isophthalamide] | > 501 nM | < 1000 nM | < 300 nM | > 501 nM
Cc1cncc(CNCC(O)C(Cc2ccccc2)NC(=O)c2cc(C(=O)NC(C)c3ccccc3)cc(N(C)S(C)(=O)=O)c2)c1 (centres unmarked) [N1-(3-hydroxy-4-((5-methylpyridin-3-yl)methylamino)-1-phenylbutan-2-yl)-5-(N-methylmethylsulfonamido)-N3-(1-phenylethyl)isophthalamide] | < 300 nM | < 1000 nM | < 300 nM | 301 to 500 nM
COc1cccc(CNCC(O)C(Cc2ccccc2)NC(=O)c2cc(C(=O)NC(C)c3cccnc3)cc(N(C)S(C)(=O)=O)c2)c1 (centres unmarked) [N1-(3-hydroxy-4-(3-methoxybenzylamino)-1-phenylbutan-2-yl)-5-(N-methylmethylsulfonamido)-N3-(1-(pyridin-3-yl)ethyl)isophthalamide] | < 300 nM | < 1000 nM | > 501 nM | > 501 nM
CC(C)NC(=O)c1cccc(CNCC(O)C(Cc2ccccc2)NC(=O)c2cc(C(=O)NC(C)c3ccccc3)cc(N(C)S(C)(=O)=O)c2)c1 (centres unmarked) [N1-(3-hydroxy-4-(3-(isopropylcarbamoyl)benzylamino)-1-phenylbutan-2-yl)-5-(N-methylmethylsulfonamido)-N3-(1-phenylethyl)isophthalamide] | > 501 nM | > 5000 nM |  | > 501 nM
COc1cccc(CNCC(O)C(Cc2ccccc2)NC(=O)c2cc(C(=O)NC(C)c3ccccc3)cc(N(C)S(C)(=O)=O)c2)c1 (centres unmarked) [N1-(3-hydroxy-4-(3-methoxybenzylamino)-1-phenylbutan-2-yl)-5-(N-methylmethylsulfonamido)-N3-(1-phenylethyl)isophthalamide] |  | < 1000 nM | < 300 nM | < 300 nM
Cc1csc(CN(C)CC(O)C(Cc2ccccc2)NC(=O)c2cc(C(=O)NC(C)c3ccccc3)cc(N(C)S(C)(=O)=O)c2)n1 (centres unmarked) [N1-(3-hydroxy-4-(methyl((4-methylthiazol-2-yl)methyl)amino)-1-phenylbutan-2-yl)-5-(N-methylmethylsulfonamido)-N3-(1-phenylethyl)isophthalamide] | > 501 nM |  | > 501 nM | > 501 nM
COc1cccc(CNCC(O)C(Cc2ccccc2)NC(=O)c2cccc(C(=O)N(Cc3nc(C)cs3)C3CC3)c2)c1 (centres unmarked) [N1-cyclopropyl-N3-(3-hydroxy-4-(3-methoxybenzylamino)-1-phenylbutan-2-yl)-N1-((4-methylthiazol-2-yl)methyl)isophthalamide] | < 300 nM |  | < 300 nM | > 501 nM
COCc1cccc(CNCC(O)C(Cc2ccccc2)NC(=O)c2cc(C(=O)NC(C)c3ccccc3)cc(N(C)S(C)(=O)=O)c2)c1 (centres unmarked) [N1-(3-hydroxy-4-(3-(methoxymethyl)benzylamino)-1-phenylbutan-2-yl)-5-(N-methylmethylsulfonamido)-N3-(1-phenylethyl)isophthalamide] |  | > 5000 nM |  | > 501 nM
COc1cccc(CNCC(O)C(CC(C)C)NC(=O)c2cc(C(=O)NC(C)c3ccccc3)cc(N(C)S(C)(=O)=O)c2)c1 (centres unmarked) [N1-(2-hydroxy-1-(3-methoxybenzylamino)-5-methylhexan-3-yl)-5-(N-methylmethylsulfonamido)-N3-(1-phenylethyl)isophthalamide] | > 501 nM |  |  | > 501 nM
4- or 6-fluoro-N3-(3-hydroxy-4-(3-methoxybenzylamino)-1-phenylbutan-2-yl)-N1-methyl-N1-((4-methylthiazol-2-yl)methyl)isophthalamide | < 300 nM |  | < 300 nM | < 300 nM
CC(NC(=O)c1cc(C(=O)NC(Cc2ccccc2)C(O)CNCc2cccc(COCc3ccccc3)c2)cc(N(C)S(C)(=O)=O)c1)c1ccccc1 (centres unmarked) [N1-(4-(3-(benzyloxymethyl)benzylamino)-3-hydroxy-1-phenylbutan-2-yl)-5-(N-methylmethylsulfonamido)-N3-(1-phenylethyl)isophthalamide] | 301 to 500 nM |  | > 501 nM | < 300 nM
Cc1nc(CNCC(O)C(Cc2ccccc2)NC(=O)c2cc(C(=O)NC(C)c3ccccc3)cc(N(C)S(C)(=O)=O)c2)c(C)o1 (centres unmarked) [N1-(4-((2,5-dimethyloxazol-4-yl)methylamino)-3-hydroxy-1-phenylbutan-2-yl)-5-(N-methylmethylsulfonamido)-N3-(1-phenylethyl)isophthalamide] |  | 1000 to 5000 nM | > 501 nM | > 501 nM
COc1cncc(CNCC(O)C(Cc2ccccc2)NC(=O)c2cc(C(=O)NC(C)c3ccccc3)cc(N(C)S(C)(=O)=O)c2)c1 (centres unmarked) [N1-(3-hydroxy-4-((5-methoxypyridin-3-yl)methylamino)-1-phenylbutan-2-yl)-5-(N-methylmethylsulfonamido)-N3-(1-phenylethyl)isophthalamide] | < 300 nM |  | < 300 nM | 301 to 500 nM
COc1cccc(CNCC(O)C(Cc2ccccc2)NC(=O)c2cc(C(=O)NC(C)c3cccc(OC)c3)cc(N(C)S(C)(=O)=O)c2)c1 (centres unmarked) [N1-(3-hydroxy-4-(3-methoxybenzylamino)-1-phenylbutan-2-yl)-N3-(1-(3-methoxyphenyl)ethyl)-5-(N-methylmethylsulfonamido)isophthalamide] | < 300 nM | < 1000 nM |  | > 501 nM
COc1cccc(C(C)NCC(O)C(Cc2ccccc2)NC(=O)c2cc(C(=O)NC(C)c3cccc(OC)c3)cc(N(C)S(C)(=O)=O)c2)c1 (centres unmarked) [N1-(3-hydroxy-4-(1-(3-methoxyphenyl)ethylamino)-1-phenylbutan-2-yl)-N3-(1-(3-methoxyphenyl)ethyl)-5-(N-methylmethylsulfonamido)isophthalamide] | < 300 nM | < 1000 nM | < 300 nM | 
